# Measured values from patent US11311592B2, “Bauhinia extract and uses thereof” (Academia Sinica, priority 2015, dated 2022).
# System: p62-RL-HEK cells
# Experiment: Cell-based p62-Renilla luciferase reporter assay of autophagy activity
# Parameters: species or system Human
# Conditions: positive controls: 3-MA 5 μM, rapamycin 200 nM; 24 hr at 37° C.
# Description: FIG. 3. Treatments with BVEE induces autophagy. A. GFP-LC3-HEK cells were treated with BVEE (50 μg/ml) at 37° C. for 24 h. An autophagy inducer, rapamycin, and an autophagy inhibitor, 3-MA, were included as controls. Clarified lysates containing equal amounts of proteins were resolved by SDS-PAGE and analyzed by Western blotting with anti-p62 (top panel), anti-LC3 (middle panel), and anti-GAPDH (bottom panel) antibodies. B. A stable cell line p62-RL-HEK that overexpresses Renilla luciferase-tagged p62 was treated with BVEE (50 μg/ml) at 37° C. for 24 h. Additional treatments with either rapamycin or 3-MA were included as controls. Renilla luciferase signal was determined by the addition of coelenterazine at equal volume to a final concentration of 5 μM. Luminescence emitted by DMSO-treated cells (Control) was referred to as 100% relative Renilla luciferase signal;
# FIG. 12. The autophagy-inducing potency of extracts derived from B. variegate (BV) by using different solvents. The p62-RL-HEK cells were treated with or without B. variegate extract ([…]) at 37° C. for 24 h. Additional treatments with either rapamycin (RAP) or 3-MA were included as references. Renilla luciferase (Luc) activity was determined by the addition of coelenterazine to a final concentration of […]. Luminescence emitted by DMSO-treated cells (Control) was referred to as 100% relative Renilla luciferase signal. […]
smiles,measurement,value
"Cn1cnc(N)c2ncnc1-2 [3-MA, 3-methyladenine]",luciferase signal of p62-RL-HEK cells,significant increase
